Results on 2 compounds are retold here after US6887492B2, “Magnesium plus interactive agent delivery” (Leiner Health Services Corp., priority 2000, dated 2005).

Each structure is given as a SMILES string.

The data set is described as follows: Dissolution times of calcium and magnesium in water at pH 7. Format: physicochemical. Particulars: water pH 7. How it is done: The dissolution times for calcium and magnesium were measured by dissolving each in a solution of water having a pH of 7. 331 mg of calcium was placed in a beaker containing the solution an allowed to dissolve. 165 mg of magnesium was then placed in a second beaker and dissolved. The results are listed below in Table 1 and shown graphically in FIG. 1.

As to `[Ca+2]` [CALCIUM, calcium], the “Dissolution, percent (%)” value by setting is: (dissolution time 0 min) 0%; (dissolution time 15 min) 99.7%; (dissolution time 30 min) 98.79%; (dissolution time 45 min) 98.19%; (dissolution time 60 min) 99.09%; (dissolution time 75 min) 96.79%. Also, the “Dissolution, percent (%)” value (dissolution time 90 min) is reported as 97.89%; the “Dissolution, percent (%)” value (dissolution time 105 min) is reported as 100%; the “Dissolution, percent (%)” value (dissolution time 120 min) is 99.09%.
For the compound `[Mg+2]` [MAGNESIUM, magnesium], the “Dissolution, percent (%)” value is, setting by setting: (dissolution time 0 min) 0%; (dissolution time 30 min) 4.93%; (dissolution time 60 min) 10.61%; (dissolution time 90 min) 16.48%; (dissolution time 120 min) 21.76%; (dissolution time 150 min) 26.61%. Moreover, the “Dissolution, percent (%)” value came out at 31.82% (dissolution time 180 min); 36.67% (dissolution time 210 min); 41.82% (dissolution time 240 min); 46.79% (dissolution time 270 min); 50.67% (dissolution time 300 min); 55.21% (dissolution time 330 min). Further, the “Dissolution, percent (%)” value (dissolution time 360 min) turned out to be 58.91%.
